conditions: [M+K]+; instrument: DT; stepped-field

Row | collision cross section (N2) | SMILES
1 | 289.37 Å² | CCCCC/C=C\C/C=C\C/C=C\CCCCCCC(=O)O[C@H](COC(=O)CCCCCCC/C=C\CCCCCCCC)COP(=O)(O)OC[C@H](N)C(=O)O [PS(38:04)]
2 | 274.4 Å² | CC/C=C\C/C=C\C/C=C\C/C=C\CCCCC(=O)O[C@H](COC(=O)CCCCCCC/C=C\CCCCCCCC)COP(=O)(O)OCCN [PE(36:05)]

same assay, conditions: [M+Na-2H2O]+; instrument: DT; stepped-field

Row | collision cross section (N2) | SMILES
3 | 318.7 Å² | CCCCCCCCCCCCCCCCCCCCCCCCCCCCCCC(=O)N[C@@H](CO[C@@H]1O[C@H](CO)[C@@H](O)C(O)C1O)[C@H](O)CCCCCCCCCCCCCCC (stereo partly drawn) [GlcCer(49:00)]

same assay, conditions: [M+Na]+; instrument: DT; stepped-field

Row | SMILES | collision cross section (N2)
4 | CCCCCCCCCCCCC=CC[C@@H](O)[C@H](COP(=O)([O-])OCC[N+](C)(C)C)NC(=O)CCCCCCCCCCCCCCCCCCC [SM(38:01)] | 292.18 Å²
5 | CCCCCCCCCCCCC=CC[C@@H](O)[C@H](CO[C@@H]1O[C@H](CO)[C@@H](O)C(O)C1O)NC(=O)CCCCCCCCCCCCCCCCCCC (stereo partly drawn) [GlcCer(38:01)] | 290.52 Å²
6 | CCCCCCCCCCCCC=CC[C@@H](O)[C@H](CO[C@@H]1O[C@H](CO)[C@@H](O)C(O)C1O)NC(=O)CC=CCCCCCCCCCCCCCCCCCCCCCC (stereo partly drawn) [GlcCer(44:02)] | 306.31 Å²
7 | CCCCCCCCCCCCC=CC[C@@H](O)[C@H](CO[C@@H]1O[C@H](CO)[C@@H](O)C(O)C1O)NC(=O)CCCCCCCCCCCCCCCCCCCCCCC (stereo partly drawn) [GlcCer(42:01)] | 301.76 Å²
8 | CCCCCCCCCCCCC=CC[C@@H](O)[C@H](COP(=O)([O-])OCC[N+](C)(C)C)NC(=O)CCCCCCCCCCCCCCCCCCCCCC [SM(41:01)] | 299.31 Å²

The remaining lines, values ahead:

Row | collision cross section (N2) | SMILES
9 | 276.03 Å² | CCCCCC/C=C\CCCCCCCCCC(=O)O[C@H](COC(=O)CCCCCCCCCCCCCCC)COP(=O)(O)OCCN [PE(34:01)]
10 | 268.39 Å² | CCCCC/C=C\C/C=C\C/C=C\C/C=C\CCCC(=O)O[C@H](COC(=O)CCCCCCCCCCCCCCC)COP(=O)(O)O [PA(36:04)]
11 | 293.06 Å² | CCCCC/C=C\C/C=C\CCCC/C=C\CCCC(=O)O[C@H](COC(=O)CCCCCCCCCCCCCCCCC)COP(=O)([O-])OCC[N+](C)(C)C [PC(38:03)]
12 | 285.35 Å² | CCCCCCCCCCCCC=CC[C@@H](O)[C@H](COP(=O)([O-])OCC[N+](C)(C)C)NC(=O)CCCCCCCCCCCCCCCCCC [SM(37:01)]
13 | 284.83 Å² | CCCCCC/C=C/CCCCCCCCCC(=O)O[C@H](COC(=O)CCCCCCCCCCCCCCC)COP(=O)([O-])OCC[N+](C)(C)C [PC(34:01)]
14 | 272.25 Å² | CCCC/C=C\CCCCCCCC(=O)OC[C@H](COP(=O)(O)O)OC(=O)CCCCCCCCC/C=C\CCCCCCCCCC [PA(36:02)]
15 | 283.24 Å² | CCCCC/C=C\C/C=C\C/C=C\CCCCC(=O)O[C@H](COCCCCCCCCCCCCCCCCCCCC)COP(=O)(O)OCCN [PE(o38:03)]
16 | 273.06 Å² | CCCCC/C=C\C/C=C\CCCCCCCCCCCC(=O)O[C@H](COC(=O)CCCCCCCCCCC)COP(=O)(O)OCCN [PE(34:02)]
17 | 268.62 Å² | CCCCCCCC/C=C\CCCCCCCCCC(=O)O[C@H](COC(=O)CCCCCCCCCCC)COP(=O)(O)OCCN [PE(32:01)]

same assay, conditions: [M-H]-; instrument: DT; stepped-field

Row | collision cross section (N2) | SMILES
18 | 266.91 Å² | CCCCCC/C=C\CCCCCCCCCC(=O)O[C@H](COC(=O)CCCCCCCCCCCCCCC)COP(=O)(O)OCCN [PE(34:01)]
19 | 290.63 Å² | CC/C=C\C/C=C\C/C=C\C/C=C\C/C=C\CCCC(=O)OC[C@H](COP(=O)(O)OC[C@H](N)C(=O)O)OC(=O)CCCCC/C=C\C/C=C\C/C=C\C/C=C\CCCCC [PS(42:09)]
20 | 265.55 Å² | CCCCC/C=C\C/C=C\CCCCCCCCCCCC(=O)O[C@H](COC(=O)CCCCCCCCCCC)COP(=O)(O)OCCN [PE(34:02)]
21 | 285.11 Å² | CCCCC/C=C\C/C=C\C/C=C\CCCCCCC(=O)O[C@H](COC(=O)CCCCCCC/C=C\CCCCCCCC)COP(=O)(O)OC[C@H](N)C(=O)O [PS(38:04)]

conditions: [M+HCOO]-; instrument: DT; single field, calibrated with Agilent tune mix (Agilent)

Row | collision cross section (N2) | SMILES
22 | 263.4 Å² | CCCCCCCCCCCCC=CC[C@@H](O)[C@H](CO)NC(=O)CCCCCCCCCCCCCCCCCCC [Cer(38:1)]
23 | 269.4 Å² | CCCCCCCCCCCCC=CC[C@@H](O)[C@H](CO)NC(=O)CCCCCCCCCCCCCCCCCCCCC [Cer(40:1)]

same assay, conditions: [M+H]+; instrument: DT; single field, calibrated with Agilent tune mix (Agilent)

Row | SMILES | collision cross section (N2)
24 | CCCCCCCCCCCCCCC[C@@H](O)[C@H](COP(=O)([O-])OCC[N+](C)(C)C)NC(=O)CCCCCCCCCCCCC [SM(32:0)] | 278.5 Å²
25 | CCCCCCCCCCCCC=CC[C@@H](O)[C@H](CO)NC(=O)CCCCCCCCCCCCCCCCCCC [Cer(38:1)] | 267.3 Å²
26 | CCCCCCCCCCCCC=CC[C@@H](O)[C@H](CO)NC(=O)CCCCCCCCCCCCCCCCCCCCCC [Cer(41:1)] | 275.6 Å²
27 | CCCCCCCCCCCCC=CC[C@@H](O)[C@H](CO[C@@H]1O[C@H](CO)[C@@H](O)C(O)C1O)NC(=O)CCCCCCCCCCCCCCCCCCCCCCCCC (stereo partly drawn) [GlcCer(44:1)] | 307.2 Å²
28 | CCCCCCCCCCCCC=CC[C@@H](O)[C@H](CO)NC(=O)CCCCCCCCCCCCCCCCCCCCC [Cer(40:1)] | 272.3 Å²
29 | CCCCCCCCCCCCCCCCCC(=O)OC[C@@H](O)COP(=O)(O)OC[C@H](N)C(=O)O [LPS(18:0)] | 228.3 Å²
30 | CCCCCCCCCCCCCCCCC(=O)N[C@@H](CO)[C@H](O)CCCCCCCCCCCCCCC [Cer(35:0)] | 258.6 Å²

Next, values leading:

Row | collision cross section (N2) | SMILES
31 | 305.1 Å² | CCCCCC/C=C\CCCCCCCC(=O)OC[C@H](COP(=O)(O)O[C@H]1C(O)C(O)C(O)[C@@H](O)C1O)OC(=O)CCCCCCCCC/C=C\CCCCCCCCCC (stereo partly drawn) [PI(38:2)]
32 | 283.3 Å² | CCCCCC/C=C\CCCCCCCC/C=C\OC[C@H](COP(=O)([O-])OCC[N+](C)(C)C)OC(=O)CCCCCCC/C=C\CCCCCC [PC(p34:2)]

same assay, conditions: [M+NH4]+; instrument: DT; single field, calibrated with Agilent tune mix (Agilent)

Row | collision cross section (N2) | SMILES
33 | 325 Å² | CCCCC/C=C\CCCCCCCC(=O)OC[C@H](COC(=O)CCCCCCCCCCCCCCCCCC)OC(=O)CCCCCCCCCCCCCCCCCC [TG(53:1)]
34 | 306 Å² | CCCCCC/C=C\CCCCCCCC(=O)OC[C@H](COP(=O)(O)O[C@H]1C(O)C(O)C(O)[C@@H](O)C1O)OC(=O)CCCCCCCCC/C=C\CCCCCCCCCC (stereo partly drawn) [PI(38:2)]
35 | 333.6 Å² | CCCCCCCCCC/C=C\CCCCCCCCCC(=O)OC[C@@H](COC(=O)CCCCCCCCCCC)OC(=O)CCCCCCCCCCCCCCCCCCCCC [TG(56:1)]
36 | 332.7 Å² | CC/C=C\C/C=C\C/C=C\C/C=C\C/C=C\CCCCCC(=O)OC[C@@H](COC(=O)CCCC/C=C\C/C=C\C/C=C\C/C=C\CC)OC(=O)CCCCC/C=C\C/C=C\C/C=C\C/C=C\C/C=C\CC [TG(62:14)]

same assay, conditions: [M+Na]+; instrument: DT; single field, calibrated with Agilent tune mix (Agilent)

Row | collision cross section (N2) | SMILES
37 | 303.2 Å² | CCCCCC/C=C\CCCCCCCC(=O)OC[C@H](COP(=O)(O)O[C@H]1C(O)C(O)C(O)[C@@H](O)C1O)OC(=O)CCCCCCCCC/C=C\CCCCCCCCCC (stereo partly drawn) [PI(38:2)]
38 | 273.1 Å² | CCCCCCCCCCCCC=CC[C@@H](O)[C@H](CO)NC(=O)CCCCCCCCCCCCCCCCCCC [Cer(38:1)]
39 | 281.6 Å² | CCCCCCCCCCCCC=CC[C@@H](O)[C@H](CO)NC(=O)CCCCCCCCCCCCCCCCCCCCCC [Cer(41:1)]
40 | 308.7 Å² | CCCCCCCCCCCCC=CC[C@@H](O)[C@H](CO[C@@H]1O[C@H](CO)[C@@H](O)C(O)C1O)NC(=O)CCCCCCCCCCCCCCCCCCCCCCCCC (stereo partly drawn) [GlcCer(44:1)]

Row | SMILES | collision cross section (N2)
41 | CCCCCCCCCCCCCCCCCC(=O)OC[C@@H](O)COP(=O)(O)OC[C@H](N)C(=O)O [LPS(18:0)] | 232.1 Å²

same assay, conditions: [M-H]-; instrument: DT; single field, calibrated with Agilent tune mix (Agilent)

Row | collision cross section (N2) | SMILES
42 | 295.2 Å² | CCCCCC/C=C\CCCCCCCC(=O)OC[C@H](COP(=O)(O)O[C@H]1C(O)C(O)C(O)[C@@H](O)C1O)OC(=O)CCCCCCCCC/C=C\CCCCCCCCCC (stereo partly drawn) [PI(38:2)]
43 | 296.5 Å² | CCCCC/C=C\C/C=C\C/C=C\CCCCCCC(=O)O[C@H](COC(=O)CCCCCCCCCCCCCCCCCC)COP(=O)(O)O[C@H]1C(O)C(O)C(O)[C@@H](O)C1O (stereo partly drawn) [PI(39:3)]

Source: the C3SDB collision cross section collection
